Measurements published in patent publication US20260317320A1, “C5AR1 ANTAGONISTS AND USES THEREOF” (Vanqua Bio, Inc., priority 2022, published 2026).
Where two headings read alike, the source gives them in different places.

Experiments:
[1] = target: T1, complement C5a receptor 1 (C5aR1) (Homo sapiens, UniProt P21730); experiment: β-arrestin recruitment via C5aR1 activation in live CHO-K1 cells (PathHunter), antagonist mode; assay type: cell-based
T1 construct: β-galactosidase fragment (PathHunter enzyme complementation); host or cells: CHO-K1 (PathHunter CHO-K1 C5aR1 β-arrestin cell line)
T1 sequence (P21730 1-350): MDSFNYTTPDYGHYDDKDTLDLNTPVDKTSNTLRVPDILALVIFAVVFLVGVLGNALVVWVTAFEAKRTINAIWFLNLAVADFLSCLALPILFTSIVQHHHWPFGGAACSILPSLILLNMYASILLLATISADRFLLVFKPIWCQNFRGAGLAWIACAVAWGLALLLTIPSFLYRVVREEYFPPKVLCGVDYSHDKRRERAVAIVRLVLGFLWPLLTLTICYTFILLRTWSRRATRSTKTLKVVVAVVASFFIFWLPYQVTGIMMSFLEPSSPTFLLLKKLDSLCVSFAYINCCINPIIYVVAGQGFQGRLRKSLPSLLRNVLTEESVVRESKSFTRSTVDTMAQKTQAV
Procedure, shortened: (§1)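 Live CHO-K1 cells expressing β-galactosidase fragments fused to β-arrestin and C5aR1; recruitment is read by fragment complementation. In agonist mode compounds are tested alone; in antagonist mode they compete against recombinant hC5a at EC90. IC50 reported in binned ranges.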

[2] = target: T1, complement C5a receptor 1 (C5aR1); experiment: β-arrestin recruitment via C5aR1 activation in live CHO-K1 cells (PathHunter), agonist mode; assay type: cell-based
Procedure, shortened: as §1

[3] = antagonist mode, recombinant hC5a (EC90) as competing natural agonist, live CHO-K1 cells, read-out: [Antagonist] B-arrestin2 recruitment: Average IC50

## Cc1cccc(F)c1N1CCC(c2cc3nccnc3n(Cc3cncc(C(F)(F)F)n3)c2=O)CC1 [compound 30, 7-(1-(2-Fluoro-6-methylphenyl)piperidin-4-yl)-5-((6-(trifluoromethyl)pyrazin-2-yl)methyl)pyrido[2,3-b]pyrazin-6(5H)-one]
[1]
  IC50: 5 to 100 µM
[2]
  [Agonist] B-arrestin2 recruitment: Average EC50 (nM): Non-Active

## Cc1ccnc(F)c1N1CCC(c2cc3nccnc3n(Cc3ccccc3C(F)(F)F)c2=O)CC1 [compound 31, 7-(1-(2-Fluoro-4-methylpyridin-3-yl)piperidin-4-yl)-5-(2-(trifluoromethyl)benzyl)pyrido[2,3-b]pyrazin-6(5H)-one]
[1]; [3]
  IC50: < 0.5 µM
[2]
  [Agonist] B-arrestin2 recruitment: Average EC50 (nM): Non-Active

## Cc1cc(F)ncc1N1CCC(c2cc3nccnc3n(Cc3ccccc3C(F)(F)F)c2=O)CC1 [compound 32, 7-(1-(6-Fluoro-4-methylpyridin-3-yl)piperidin-4-yl)-5-(2-(trifluoromethyl)benzyl)pyrido-[2,3-b]pyrazin-6(5H)-one]
[1]; [3]
  IC50: < 0.5 µM
[2]
  [Agonist] B-arrestin2 recruitment: Average EC50 (nM): Non-Active

## COc1ccnc(F)c1N1CCC(c2cc3nccnc3n(Cc3ccccc3C(F)(F)F)c2=O)CC1 [compound 33, 7-(1-(2-Fluoro-4-methoxypyridin-3-yl)piperidin-4-yl)-5-(2-(trifluoromethyl)benzyl)pyrido[2,3-b]pyrazin-6(5H)-one]
[1]; [3]
  IC50: 0.5 to 5 µM
[2]
  [Agonist] B-arrestin2 recruitment: Average EC50 (nM): Non-Active

## O=c1c(C2CCN(c3nccnc3F)CC2)cc2nccnc2n1Cc1ccccc1C(F)(F)F [compound 34, 7-(1-(3-Fluoropyrazin-2-yl)piperidin-4-yl)-5-(2-(trifluoromethyl)benzyl)pyrido[2,3-b]pyrazine-6(5H)-one]
[1]; [3]
  IC50: > 100 µM
[2]
  [Agonist] B-arrestin2 recruitment: Average EC50 (nM): Non-Active

## Cc1cccc(F)c1N1CCC(c2cc3nccnc3n(Cc3ccccc3F)c2=O)CC1 [compound 35, 7-(1-(2-Fluoro-6-methylphenyl)piperidin-4-yl)-5-(2-fluorobenzyl)pyrido[2,3-b]pyrazin-6(5H)-one]
[1]; [3]
  IC50: < 0.5 µM
[2]
  [Agonist] B-arrestin2 recruitment: Average EC50 (nM): Non-Active

## Cc1cccc(F)c1N1CCC(n2c(=O)c3ccccc3n(Cc3ncccc3C(F)(F)F)c2=O)CC1 [compound 36, 3-(1-(2-Fluoro-6-methylphenyl)piperidin-4-yl)-1-((3-(trifluoromethyl)pyridin-2-yl)methyl)quinazoline-2,4(1H,3H)-dione]
[1]; [3]
  IC50: 0.5 to 5 µM
[2]
  [Agonist] B-arrestin2 recruitment: Average EC50 (nM): Non-Active

## Cc1cccc(F)c1N1CCC(n2c(=O)c3nccnc3n(Cc3nccnc3C(F)(F)F)c2=O)CC1 [compound 37, 3-(1-(2-Fluoro-6-methylphenyl)piperidin-4-yl)-1-((3-(trifluoromethyl)pyrazin-2-yl)methyl)pteridine-2,4(1H,3H)-dione]
[1]; [3]
  IC50: 5 to 100 µM
[2]
  [Agonist] B-arrestin2 recruitment: Average EC50 (nM): Non-Active

## O=c1c(C2CCN(c3ccccc3C(F)(F)F)CC2)cc2nccnc2n1Cc1ncccc1C(F)(F)F [compound 38, 7-(1-(2-(Trifluoromethyl)phenyl)piperidin-4-yl)-5-((3-(trifluoromethyl)pyridin-2-yl)methyl)pyrido[2,3-b]pyrazin-6(5H)-one]
[1]; [3]
  IC50: < 0.5 µM
[2]
  [Agonist] B-arrestin2 recruitment: Average EC50 (nM): Non-Active

## Cc1cccc(F)c1N1CCC(c2nc3nccnc3n(Cc3ccccc3C(F)(F)F)c2=O)CC1 [compound 39, 3-(1-(2-Fluoro-6-methylphenyl)piperidin-4-yl)-1-(2-(trifluoromethyl)benzyl)pyrazino[2,3-b]pyrazin-2(1H)-one]
[1]
  IC50: 0.5 to 5 µM
[2]
  [Agonist] B-arrestin2 recruitment: Average EC50 (nM): Non-Active

## Cc1cnc2cc(C3CCN(c4c(C)cccc4F)CC3)c(=O)n(Cc3ncccc3C(F)(F)F)c2n1 [compound 41, 7-(1-(2-Fluoro-6-methylphenyl)piperidin-4-yl)-3-methyl-5-((3-(trifluoromethyl)pyridin-2-yl)methyl)pyrido[2,3-b]pyrazin-6(5H)-one]
[1]; [3]
  IC50: < 0.5 µM
[2]
  [Agonist] B-arrestin2 recruitment: Average EC50 (nM): Non-Active

## Cc1cccc(F)c1N1CCC(n2c(=O)c3nccnc3n(Cc3ncccc3C(F)(F)F)c2=O)CC1 [compound 42, 3-(1-(2-Fluoro-6-methylphenyl)piperidin-4-yl)-1-((3-(trifluoromethyl)pyridin-2-yl)methyl)pteridine-2,4(1H,3H)-dione]
[1]; [3]
  IC50: 0.5 to 5 µM
[2]
  [Agonist] B-arrestin2 recruitment: Average EC50 (nM): Non-Active

## Cc1ncc(F)cc1N1CCC(c2cc3nccnc3n(Cc3ncccc3C(F)(F)F)c2=O)CC1 [compound 44, 7-(1-(5-Fluoro-2-methylpyridin-3-yl)piperidin-4-yl)-5-((3-(trifluoromethyl)pyridin-2-yl)methyl)pyrido[2,3-b]pyrazin-6(5H)-one]
[1]; [3]
  IC50: > 100 µM
[2]
  [Agonist] B-arrestin2 recruitment: Average EC50 (nM): Non-Active

## Cc1ncc(F)cc1N1CCC(c2cc3nccnc3n(Cc3nccnc3C(F)(F)F)c2=O)CC1 [compound 45, 7-(1-(5-Fluoro-2-methylpyridin-3-yl)piperidin-4-yl)-5-((3-(trifluoromethyl)pyrazin-2-yl)methyl)pyrido[2,3-b]pyrazin-6(5H)-one]
[1]; [3]
  IC50: > 100 µM
[2]
  [Agonist] B-arrestin2 recruitment: Average EC50 (nM): Non-Active

## Cc1cccc(F)c1N1CCC(c2nc3nccnc3n(Cc3ccccc3OC(F)F)c2=O)CC1 [compound 46, 1-(2-(difluoromethoxy)benzyl)-3-(1-(2-fluoro-6-methylphenyl)piperidin-4-yl)pyrazino[2,3-b]pyrazin-2(1H)-one]
[1]; [3]
  IC50: 0.5 to 5 µM
[2]
  [Agonist] B-arrestin2 recruitment: Average EC50 (nM): Non-Active

## Cc1ncc2cc(C3CCN(c4c(C)cccc4F)CC3)c(=O)n(Cc3nccnc3C(F)(F)F)c2n1 [compound 47, 6-(1-(2-Fluoro-6-methylphenyl)piperidin-4-yl)-2-methyl-8-((3-(trifluoromethyl)pyrazin-2-yl)methyl)pyrido[2,3-d]pyrimidin-7(8H)-one]
[1]; [3]
  IC50: 0.5 to 5 µM
[2]
  [Agonist] B-arrestin2 recruitment: Average EC50 (nM): Non-Active

## Cc1cccc(F)c1N1CC(c2cc3nccnc3n(Cc3ncccc3C(F)(F)F)c2=O)C1 [compound 48, 7-(1-(2-Fluoro-6-methylphenyl)azetidin-3-yl)-5-((3-(trifluoromethyl)pyridin-2-yl)methyl)pyrido[2,3-b]pyrazin-6(5H)-one]
[1]; [3]
  IC50: 0.5 to 5 µM
[2]
  [Agonist] B-arrestin2 recruitment: Average EC50 (nM): Non-Active

## Cc1cnc2c(=O)n(C3CCN(c4c(C)cccc4F)CC3)c(=O)n(Cc3ncccc3C(F)(F)F)c2n1 [compound 50, 3-(1-(2-Fluoro-6-methylphenyl)piperidin-4-yl)-7-methyl-1-((3-(trifluoromethyl)pyridin-2-yl)methyl)pteridine-2,4(1H,3H)-dione]
[1]; [3]
  IC50: 0.5 to 5 µM
[2]
  [Agonist] B-arrestin2 recruitment: Average EC50 (nM): Non-Active

## CCOc1ncc2cc(C3CCN(c4c(C)cccc4F)CC3)c(=O)n(Cc3nccnc3C(F)(F)F)c2n1 [compound 51, 2-Ethoxy-6-(1-(2-fluoro-6-methylphenyl)piperidin-4-yl)-8-((3-(trifluoromethyl)pyrazin-2-yl)methyl)pyrido[2,3-d]pyrimidin-7(8H)-one]
[1]; [3]
  IC50: 0.5 to 5 µM
[2]
  [Agonist] B-arrestin2 recruitment: Average EC50 (nM): Non-Active

## Cc1cnc2cc(C3CCN(c4cc(F)cnc4C)CC3)c(=O)n(Cc3nccnc3C(F)(F)F)c2n1 [compound 52, 7-(1-(5-Fluoro-2-methylpyridin-3-yl)piperidin-4-yl)-3-methyl-5-((3-(trifluoromethyl)pyrazin-2-yl)methyl)pyrido[2,3-b]pyrazin-6(5H)-one]
[1]; [3]
  IC50: > 100 µM
[2]
  [Agonist] B-arrestin2 recruitment: Average EC50 (nM): Non-Active

## COc1cnc2cc(C3CCN(c4c(C)cccc4F)CC3)c(=O)n(Cc3ncccc3C(F)(F)F)c2n1 [compound 54, 7-(1-(2-Fluoro-6-methylphenyl)piperidin-4-yl)-3-methoxy-5-((3-(trifluoromethyl)pyridin-2-yl)methyl)pyrido[2,3-b]pyrazin-6(5H)-one]
[1]; [3]
  IC50: > 100 µM
[2]
  [Agonist] B-arrestin2 recruitment: Average EC50 (nM): Non-Active

## Cc1cnc2c(cc(C3CCN(c4c(C)cccc4F)CC3)c(=O)n2Cc2ccccc2C(F)(F)F)n1 [compound 55, 7-(1-(2-Fluoro-6-methylphenyl)piperidin-4-yl)-2-methyl-5-(2-(trifluoromethyl)-benzyl)-pyrido[2,3-b]pyrazin-6(5H)-one]
[1]; [3]
  IC50: 0.5 to 5 µM
[2]
  [Agonist] B-arrestin2 recruitment: Average EC50 (nM): Non-Active

## Cc1cnc2cc(C3CCN(c4cc(F)cnc4C)CC3)c(=O)n(Cc3ncccc3C(F)(F)F)c2n1 [compound 56, 7-(1-(5-fluoro-2-methylpyridin-3-yl)piperidin-4-yl)-3-methyl-5-((3-(trifluoromethyl)-pyridin-2-yl)methyl)pyrido[2,3-b]pyrazin-6(5H)-one]
[1]; [3]
  IC50: 5 to 100 µM
[2]
  [Agonist] B-arrestin2 recruitment: Average EC50 (nM): Non-Active

## Cc1cccc(F)c1N1CCC(c2c(C)c3nccnc3n(Cc3ncccc3C(F)(F)F)c2=O)CC1 [compound 57, 7-(1-(2-Fluoro-6-methylphenyl)piperidin-4-yl)-8-methyl-5-((3-(trifluoromethyl)pyridin-2-yl)methyl)pyrido[2,3-b]pyrazin-6(5H)-one]
[1]; [3]
  IC50: < 0.5 µM
[2]
  [Agonist] B-arrestin2 recruitment: Average EC50 (nM): Non-Active

## COc1cnc2cc(C3CCN(c4c(C)cccc4F)CC3)c(=O)n(Cc3ccccc3C(F)(F)F)c2n1 [compound 58, 7-(1-(2-Fluoro-6-methylphenyl)piperidin-4-yl)-3-methoxy-5-(2-(trifluoromethyl)benzyl)pyrido[2,3-b]pyrazin-6(5H)-one]
[1]; [3]
  IC50: 0.5 to 5 µM
[2]
  [Agonist] B-arrestin2 recruitment: Average EC50 (nM): Non-Active
